We go through 20 compounds from patent US20240199649A1 (Biosplice Therapeutics, Inc., priority 2022, published 2024).

Usually IC50 stands for the concentration at which inhibition is half-maximal.

Molecules are shown by their SMILES.

This test has as its target recombinant DYRK1A kinase (Homo sapiens (Human), UniProt Q13627). Briefly: DYRK1A kinase assay (Ser/Thr 18 peptide Z-lyte FRET assay). The settings on record: DYRK1A 0.25 μg/mL, ATP 15 μM, Ser/Thr peptide 18 4 μM; one hour at room temperature; 11-point dose-response, duplicate. It is filed as biochemical. As to the method: Representative compounds were screened using the assay procedure for DYRK1A kinase activity as described below.
Each compound was dissolved in DMSO as a 10 mM stock and used to prepare compound source plates.
This is a non-radioactive assay using fluorescence resonance energy transfer (FRET) between coumarin and fluorescein to detect kinase activity which is represented as a ratio of coumarin emission/fluorescein emission.
The mixture was allowed to incubate with the representative compounds for one hour at room temperature. All reactions were performed in duplicate. Unphosphorylated (“0% Control”) and phosphorylated (“100% control”) forms of Ser/Thr 18 served as control reactions. Additionally, an 11-point dose-response curve of Staurosporine (1 uM top) was run to serve as a positive compound control.
After incubation, Development Reagent A was diluted in Development Buffer then added to the reaction and allowed to further incubate for one hour at room temperature.
Dose-response curves were generated, and inhibitory concentration (IC50) values were calculated using non-linear regression curve fit in the Dotmatics' Studies Software (Bishops Stortford, UK).
`C[C@]1(O)CC[C@H](Nc2nc(N)c3c(-c4ccn5nccc5c4)ccn3n2)CC1` [Compound 1, trans-4-((4-Amino-5-(pyrazolo[1,5-a]pyridin-5-yl)pyrrolo[2,1-f][1,2,4]triazin-2-yl)amino)-1-methylcyclohexan-1-ol]: the IC50 stood at 172 nM. The same measure for `CNc1nc(N[C@H]2CC[C@](C)(O)CC2)nn2ccc(-c3ccn4nccc4n3)c12` [Compound 20, trans-1-Methyl-4-((4-(methylamino)-5-(pyrazolo[1,5-a]pyrimidin-5-yl)pyrrolo[2,1-f][1,2,4]triazin-2-yl)amino)cyclohexan-1-ol]: 2.5 nM; for `CNc1nc(N[C@@H]2CCN(C)CC2(F)F)nn2ccc(-c3ccn4nccc4n3)c12` [Compound 44, (R)—N^2-(3,3-Difluoro-1-methylpiperidin-4-yl)-N^4-methyl-5-(pyrazolo[1,5-a]pyrimidin-5-yl)pyrrolo[2,1-f][1,2,4]triazine-2,4-diamine]: 5.8 nM. Take `CNc1nc(N[C@H]2CC[C@](C)(O)CC2)nn2ccc(-c3ccc4nccn4c3)c12` [Compound 58, trans-4-((5-(Imidazo[1,2-a]pyridin-6-yl)-4-(methylamino)pyrrolo[2,1-f][1,2,4]triazin-2-yl)amino)-1-methylcyclohexan-1-ol]: the concentration for half-maximal inhibition (IC50) worked out at 170 nM. Then `CNc1nc(NC2CCN(C3COC3)CC2)nn2ccc(-c3cnc4nc(C)n(C(C)C)c4c3)c12` [Compound 114], with 744 nM. For `CNc1nc(N[C@H]2CC[C@](C)(O)CC2)nn2ccc(-c3ccc4nc(C)n(C(C)C)c4n3)c12` [Compound 132, trans-4-((5-(3-Isopropyl-2-methyl-3H-imidazo[4,5-b]pyridin-5-yl)-4-(methylamino)pyrrolo[2,1-f][1,2,4]triazin-2-yl)amino)-1-methylcyclohexan-1-ol], the IC50 worked out at 1.7 nM. Then `CNc1nc(N[C@H]2C[C@](C)(O)C2)nn2ccc(-c3cnc4nc(C)n(CC(F)F)c4c3)c12` [Compound 170, trans-3-((5-(1-(2,2-Difluoroethyl)-2-methyl-1H-imidazo[4,5-b]pyridin-6-yl)-4-(methylamino)pyrrolo[2,1-f][1,2,4]triazin-2-yl)amino)-1-methylcyclobutan-1-ol], with 4.8 nM; and `CNc1nc(N[C@H]2CC[C@](C)(O)CC2)nn2ccc(-c3cnc4nc(C)n(CC(F)F)c4c3)c12` [Compound 171, trans-4-((5-(1-(2,2-Difluoroethyl)-2-methyl-1H-imidazo[4,5-b]pyridin-6-yl)-4-(methylamino)pyrrolo[2,1-f][1,2,4]triazin-2-yl)amino)-1-methylcyclohexan-1-ol], with 8 nM; and `CNc1nc(N[C@H]2C[C@@H](OCCO)C2)nn2ccc(-c3ccc4nc(C)n(CC(F)F)c4n3)c12` [Compound 172, 2-(cis-3-((5-(3-(2,2-Difluoroethyl)-2-methyl-3H-imidazo[4,5-b]pyridin-5-yl)-4-(methylamino)pyrrolo[2,1-f][1,2,4]triazin-2-yl)amino)cyclobutoxy)ethan-1-ol], with 0.9 nM. Turning to `CNc1nc(N[C@H]2C[C@@](C)(O)C2)nn2ccc(-c3ccc4nc(C)n(CC(F)F)c4n3)c12` [Compound 174, Cis-3-((5-(3-(2,2-Difluoroethyl)-2-methyl-3H-imidazo[4,5-b]pyridin-5-yl)-4-(methylamino)pyrrolo[2,1-f][1,2,4]triazin-2-yl)amino)-1-methylcyclobutan-1-ol], the concentration for half-maximal inhibition (IC50) was 1.7 nM. In the case of `CNc1nc(NC2CCC(F)(F)CC2)nn2ccc(-c3ccc4nc(C)n(CC(F)F)c4n3)c12` [Compound 182, N^2-(4,4-Difluorocyclohexyl)-5-(3-(2,2-difluoroethyl)-2-methyl-3H-imidazo[4,5-b]pyridin-5-yl)-N^4-methylpyrrolo[2,1-f][1,2,4]triazine-2,4-diamine], the IC50 turned out to be 12 nM.

For `CNc1nc(N[C@H]2CC[C@@H](OC)CC2)nn2ccc(-c3ccc4nc(C)n(CC(F)F)c4n3)c12` [Compound 183, 5-(3-(2,2-Difluoroethyl)-2-methyl-3H-imidazo[4,5-b]pyridin-5-yl)-N^2-(cis-4-methoxycyclohexyl)-N^4-methylpyrrolo[2,1-f][1,2,4]triazine-2,4-diamine], the IC50 worked out at 4.1 nM.

For `CNc1nc(N[C@H]2CC[C@@H](OCCO)CC2)nn2ccc(-c3ccc4nc(C)n(CC(F)F)c4n3)c12` [Compound 184, 2-((cis-4-((5-(3-(2,2-Difluoroethyl)-2-methyl-3H-imidazo[4,5-b]pyridin-5-yl)-4-(methylamino)pyrrolo[2,1-f][1,2,4]triazin-2-yl)amino)cyclohexyl)oxy)ethan-1-ol], the IC50 came to 0.5 nM. Turning to `CNc1nc(N[C@H]2CC[C@@H](OCCOC)CC2)nn2ccc(-c3ccc4nc(C)n(CC(F)F)c4n3)c12` [Compound 185, 5-(3-(2,2-Difluoroethyl)-2-methyl-3H-imidazo[4,5-b]pyridin-5-yl)-N^2-(cis-4-(2-methoxyethoxy)cyclohexyl)-N^4-methylpyrrolo[2,1-f][1,2,4]triazine-2,4-diamine], the IC50 was found to be 2.4 nM. The same measure for `CNc1nc(N[C@H]2CC[C@@H](NC(C)=O)CC2)nn2ccc(-c3ccc4nc(C)n(CC(F)F)c4n3)c12` [Compound 186, N-(cis-4-((5-(3-(2,2-difluoroethyl)-2-methyl-3H-imidazo[4,5-b]pyridin-5-yl)-4-(methylamino)pyrrolo[2,1-f][1,2,4]triazin-2-yl)amino)cyclohexyl)acetamide]: 1.5 nM; for `CNc1nc(N[C@H]2CC[C@H](NC(C)=O)CC2)nn2ccc(-c3ccc4nc(C)n(CC(F)F)c4n3)c12` [Compound 187, N-(trans-4-((5-(3-(2,2-Difluoroethyl)-2-methyl-3H-imidazo[4,5-b]pyridin-5-yl)-4-(methylamino)pyrrolo[2,1-f][1,2,4]triazin-2-yl)amino)cyclohexyl)acetamide]: 1.1 nM. The same measure for `CNc1nc(N[C@H]2CC[C@@](C)(O)CC2)nn2ccc(-c3ccc4nc(C)n(CC(F)F)c4n3)c12` [Compound 188, Cis-4-((5-(3-(2,2-Difluoroethyl)-2-methyl-3H-imidazo[4,5-b]pyridin-5-yl)-4-(methylamino)pyrrolo[2,1-f][1,2,4]triazin-2-yl)amino)-1-methylcyclohexan-1-ol]: 2.2 nM; for `CNc1nc(N[C@H]2CC[C@](C)(O)CC2)nn2ccc(-c3ccc4nc(C)n(CC(F)F)c4n3)c12` [Compound 189, trans-4-((5-(3-(2,2-Difluoroethyl)-2-methyl-3H-imidazo[4,5-b]pyridin-5-yl)-4-(methylamino)pyrrolo[2,1-f][1,2,4]triazin-2-yl)amino)-1-methylcyclohexan-1-ol]: 1.3 nM. As to `CNc1nc(NC23CC4CC(CC(C4)C2)C3)nn2ccc(-c3ccc4nc(C)n(CC(F)F)c4n3)c12` [Compound 196, N^2-(Adamantan-1-yl)-5-(3-(2,2-difluoroethyl)-2-methyl-3H-imidazo[4,5-b]pyridin-5-yl)-N^4-methylpyrrolo[2,1-f][1,2,4]triazine-2,4-diamine], the IC50 amounted to 595 nM. As for `CNc1nc(N[C@H]2CN(C)C[C@H]2F)nn2ccc(-c3ccc4nc(C)n(CC(F)F)c4n3)c12` [Compound 197, 5-(3-(2,2-Difluoroethyl)-2-methyl-3H-imidazo[4,5-b]pyridin-5-yl)-N^2-((3S,4R)-4-fluoro-1-methylpyrrolidin-3-yl)-N^4-methylpyrrolo[2,1-f][1,2,4]triazine-2,4-diamine], the IC50 is 2 nM.
